Molecules are shown by their SMILES.

This test concerns the target SARS-CoV-2 PLpro (Severe acute respiratory syndrome coronavirus 2 (2019-nCoV) (SARS-CoV-2), UniProt P0DTD1). The test is described as follows: PLpro enzymatic inhibition assay (IC50 value determination). It is filed as biochemical. The conditions noted are these: 60 min preincubation for covalent inhibitors, 10 min for non-covalent, read-out: Inhibition of SARS-CoV-2 PLpro IC50 range.

For the compound `COC(=O)/C=C/CNC(=O)CNC(=O)CN(C(=O)Cc1ccc2c(c1)OCO2)C1CCN(C(C)c2cccc3ccccc23)CC1` (stereo not shown) [Compound 1, methyl (E)-4-(2-(2-(2-(benzo[d][1,3]dioxol-5-yl)-N-(1-(1-(naphthalen-1-yl)ethyl)piperidin-4-yl)acetamido)acetamido)acetamido)but-2-enoate], the IC50 (as a rule, the concentration needed to halve the response being measured) is 100 to 1000 nM.

On to `COC(=O)/C=C/CNC(=O)CNC(=O)CN(C(=O)Cc1ccc2c(c1)OCO2)C1CCN([C@H](C)c2cccc3ccccc23)CC1` [Compound 2, methyl (R,E)-4-(2-(2-(2-(benzo[d][1,3]dioxol-5-yl)-N-(1-(1-(naphthalen-1-yl)ethyl)piperidin-4-yl)acetamido)acetamido)acetamido)but-2-enoate], for which the IC50 fell in the range of 100 to 1000 nM.

With `COC(=O)/C=C/CNC(=O)CNC(=O)CN(C(=O)Cc1cccc(F)c1)C1CCN([C@H](C)c2cccc3ccccc23)CC1` [Compound 3, methyl (R,E)-4-(2-(2-(2-(3-fluorophenyl)-N-(1-(1-(naphthalen-1-yl)ethyl)piperidin-4-yl)acetamido)acetamido)acetamido)but-2-enoate], the 50% inhibitory concentration (IC50) was 100 to 1000 nM.

As for `COC(=O)/C=C/CNC(=O)CNC(=O)CN(C(=O)Cc1ccccc1)C1CCN(C(C)c2cccc3ccccc23)CC1` (stereo not shown) [Compound 4, methyl (E)-4-(2-(2-(N-(1-(1-(naphthalen-1-yl)ethyl)piperidin-4-yl)-2-phenylacetamido)acetamido)acetamido)but-2-enoate], the IC50 lay in the range of 100 to 1000 nM.

Consider `COC(=O)/C=C/CNC(=O)CNC(=O)CN(C(=O)C1CC1)C1CCN([C@H](C)c2cccc3ccccc23)CC1` [Compound 5, methyl (R,E)-4-(2-(2-(N-(1-(1-(naphthalen-1-yl)ethyl)piperidin-4-yl)cyclopropanecarboxamido)acetamido)acetamido)but-2-enoate], for which the half-inhibitory concentration (IC50) was < 100 nM.

As to `COC(=O)/C=C/CNC(=O)CNC(=O)CN(C(=O)C1CCC1)C1CCN(C(C)c2cccc3ccccc23)CC1` (stereo not shown) [Compound 6, methyl (E)-4-(2-(2-(N-(1-(1-(naphthalen-1-yl)ethyl)piperidin-4-yl)cyclobutanecarboxamido)acetamido)acetamido)but-2-enoate], the IC50 was < 100 nM.

With `COC(=O)/C=C/CNC(=O)CNC(=O)CN(C(=O)C1CCC1)C1CCN([C@H](C)c2cccc3ccccc23)CC1` [Compound 7, methyl (R,E)-4-(2-(2-(N-(1-(1-(naphthalen-1-yl)ethyl)piperidin-4-yl)cyclobutanecarboxamido)acetamido)acetamido)but-2-enoate], the IC50 lay within 100 to 1000 nM.

As for `CC(c1cccc2ccccc12)N1CCC(N(CC(=O)NCC(=O)NC/C=C/C(N)=O)C(=O)C2CCC2)CC1` (stereo not shown) [Compound 8, (E)-N-(2-((2-((4-amino-4-oxobut-2-en-1-yl)amino)-2-oxoethyl)amino)-2-oxoethyl)-N-(1-(1-(naphthalen-1-yl)ethyl)piperidin-4-yl)cyclobutanecarboxamide], the IC50 fell in the range of 100 to 1000 nM.

On to `CC(c1cccc2ccccc12)N1CCC(N(CC(=O)NCC(=O)NC/C=C/S(C)(=O)=O)C(=O)C2CCC2)CC1` (stereo not shown) [Compound 9, (E)-N-(2-((2-((3-(methylsulfonyl)allyl)amino)-2-oxoethyl)amino)-2-oxoethyl)-N-(1-(1-(naphthalen-1-yl)ethyl)piperidin-4-yl)cyclobutanecarboxamide], for which the IC50 is 100 to 1000 nM.

With `COC(=O)/C=C/CNC(=O)CNC(=O)CN(C(=O)C1CCCC1)C1CCN([C@H](C)c2cccc3ccccc23)CC1` [Compound 10, methyl (R,E)-4-(2-(2-(N-(1-(1-(naphthalen-1-yl)ethyl)piperidin-4-yl)cyclopentanecarboxamido)acetamido)acetamido)but-2-enoate], the IC50 lay within 100 to 1000 nM.

With `COC(=O)/C=C/CNC(=O)CNC(=O)CN(C(=O)C1CCCCC1)C1CCN([C@H](C)c2cccc3ccccc23)CC1` [Compound 11, methyl (R,E)-4-(2-(2-(N-(1-(1-(naphthalen-1-yl)ethyl)piperidin-4-yl)cyclohexanecarboxamido)acetamido)acetamido)but-2-enoate], the IC50 is 100 to 1000 nM.

With `C#CCNC(=O)CNC(=O)CNC1CCN([C@H](C)c2cccc3ccccc23)CC1` [Compound 12, (R)-2-((1-(1-(naphthalen-1-yl)ethyl)piperidin-4-yl)amino)-N-(2-oxo-2-(prop-2-yn-1-ylamino)ethyl)acetamide], the IC50 was in the range of 100 to 1000 nM.

With `COC(=O)/C=C/CNC(=O)CNC(=O)CN(C(C)=O)C1CCN(C(C)c2cccc3ccccc23)CC1` (stereo not shown) [Compound 13, methyl (E)-4-(2-(2-(N-(1-(1-(naphthalen-1-yl)ethyl)piperidin-4-yl)acetamido)acetamido)acetamido)but-2-enoate], the IC50 is < 100 nM.

In the case of `COC(=O)/C=C/CNC(=O)CNC(=O)CN(C(=O)C(F)(F)F)C1CCN([C@H](C)c2cccc3ccccc23)CC1` [Compound 14, methyl (R,E)-4-(2-(2-(2,2,2-trifluoro-N-(1-(1-(naphthalen-1-yl)ethyl)piperidin-4-yl)acetamido)acetamido)acetamido)but-2-enoate], the IC50 fell in the range of 100 to 1000 nM.

As to `CCC(=O)N(CC(=O)NCC(=O)NC/C=C/C(=O)OC)C1CCN(C(C)c2cccc3ccccc23)CC1` (stereo not shown) [Compound 15, methyl (E)-4-(2-(2-(N-(1-(1-(naphthalen-1-yl)ethyl)piperidin-4-yl)propionamido)acetamido)acetamido)but-2-enoate], the half-maximal inhibitory concentration (IC50) was < 100 nM.

In the case of `COC(=O)/C=C/CNC(=O)CNC(=O)CN(C(=O)CC(F)(F)F)C1CCN(C(C)c2cccc3ccccc23)CC1` (stereo not shown) [Compound 16, methyl (E)-4-(2-(2-(3,3,3-trifluoro-N-(1-(1-(naphthalen-1-yl)ethyl)piperidin-4-yl)propanamido)acetamido)acetamido)but-2-enoate], the IC50 is 100 to 1000 nM.

Regarding `COC(=O)/C=C/CNC(=O)CNC(=O)CN(C(=O)C(C)C)C1CCN([C@H](C)c2cccc3ccccc23)CC1` [Compound 17, methyl (R,E)-4-(2-(2-(N-(1-(1-(naphthalen-1-yl)ethyl)piperidin-4-yl)isobutyramido)acetamido)acetamido)but-2-enoate], the half-maximal inhibitory concentration (IC50) lay within 100 to 1000 nM.

Regarding `CCCC(=O)N(CC(=O)NCC(=O)NC/C=C/C(=O)OC)C1CCN([C@H](C)c2cccc3ccccc23)CC1` [Compound 18, methyl (R,E)-4-(2-(2-(N-(1-(1-(naphthalen-1-yl)ethyl)piperidin-4-yl)butyramido)acetamido)acetamido)but-2-enoate], the IC50 was < 100 nM.

On to `COC(=O)/C=C/CNC(=O)CNC(=O)CN(C(=O)CC(C)C)C1CCN([C@H](C)c2cccc3ccccc23)CC1` [Compound 19, methyl (R,E)-4-(2-(2-(3-methyl-N-(1-(1-(naphthalen-1-yl)ethyl)piperidin-4-yl)butanamido)acetamido)acetamido)but-2-enoate], for which the IC50 is < 100 nM.

`COC(=O)/C=C/CNC(=O)CNC(=O)CN(C1CCN([C@H](C)c2cccc3ccccc23)CC1)S(N)(=O)=O` [Compound 22, methyl (R,E)-4-(2-(2-((1-(1-(naphthalen-1-yl)ethyl)piperidin-4-yl)(sulfamoyl)amino)acetamido)acetamido)but-2-enoate]: the IC50 is < 100 nM.

`COC(=O)/C=C/CNC(=O)CNC(=O)CN(C1CCN([C@H](C)c2cccc3ccccc23)CC1)S(=O)(=O)NC(=O)OC(C)(C)C` [Compound 23, methyl (R,E)-4-(2-(2-((N-(tert-butoxycarbonyl)sulfamoyl)(1-(1-(naphthalen-1-yl)ethyl)piperidin-4-yl)amino)acetamido)acetamido)but-2-enoate]: the IC50 fell in the range of 100 to 1000 nM.

As for `COC(=O)/C=C/CNC(=O)CNC(=O)CNC1CCN([C@H](C)c2cccc3ccccc23)CC1` [Compound 24, methyl (R,E)-4-(2-(2-((1-(1-(naphthalen-1-yl)ethyl)piperidin-4-yl)amino)acetamido)acetamido)but-2-enoate], the 50% inhibitory concentration (IC50) fell in the range of 100 to 1000 nM.

For `COC(=O)/C=C/CNC(=O)CNC(=O)CN(C)C1CCN([C@H](C)c2cccc3ccccc23)CC1` [Compound 25, methyl (R,E)-4-(2-(2-(methyl(1-(1-(naphthalen-1-yl)ethyl)piperidin-4-yl)amino)acetamido)acetamido)but-2-enoate], the IC50 was < 100 nM.

For `COC(=O)/C=C/CNC(=O)CNC(=O)[C@H](CN)NC1CCN([C@H](C)c2cccc3ccccc23)CC1` [Compound 26, methyl (E)-4-(2-((S)-3-amino-2-((1-((R)-1-(naphthalen-1-yl)ethyl)piperidin-4-yl)amino)propanamido)acetamido)but-2-enoate], the IC50 was in the range of 100 to 1000 nM.

Take `COC(=O)/C=C/CNC(=O)CNC(=O)[C@H](CNC(=O)OC(C)(C)C)NC1CCN([C@H](C)c2cccc3ccccc23)CC1` [Compound 27, methyl (S,E)-2,2-dimethyl-7-((1-((R)-1-(naphthalen-1-yl)ethyl)piperidin-4-yl)amino)-4,8,11-trioxo-3-oxa-5,9,12-triazahexadec-14-en-16-oate]: the IC50 was in the range of 1000 to 10000 nM.

For `COC(=O)/C=C/CNC(=O)CNC(=O)[C@@H](C)NC1CCN([C@H](C)c2cccc3ccccc23)CC1` [Compound 28, methyl (E)-4-(2-((R)-2-((1-((R)-1-(naphthalen-1-yl)ethyl)piperidin-4-yl)amino)propanamido)acetamido)but-2-enoate], the IC50 is 1000 to 10000 nM.

As for `COC(=O)/C=C/CNC(=O)CNC(=O)C[C@H](NCc1ccc2c(c1)OCO2)C1CCN(C(C)c2cccc3ccccc23)CC1` (stereo partly drawn) [Compound 29, methyl (E)-4-(2-((3S)-3-((benzo[d][1,3]dioxol-5-ylmethyl)amino)-3-(1-(1-(naphthalen-1-yl)ethyl)piperidin-4-yl)propanamido)acetamido)but-2-enoate], the IC50 is 100 to 1000 nM.

Regarding `C#CCNC(=O)CCNC(=O)CN(C1CCN([C@H](C)c2cccc3ccccc23)CC1)S(C)(=O)=O` [Compound 57, (R)-3-(2-(N-(1-(1-(naphthalen-1-yl)ethyl)piperidin-4-yl)methylsulfonamido)acetamido)-N-(prop-2-yn-1-yl)propanamide], the IC50 was in the range of 100 to 1000 nM.

Source of the values: patent US20250059159A1, “PLPRO INHIBITORS” (SHANGHAI SYNERGY PHARMACEUTICAL SCIENCES CO., LTD., priority 2021, published 2025).
